Experimental data published in patent US8562986B2, “Engineered anti-alpha V-integrin hybrid antibodies” (Merck Patent GmbH, priority 2007, dated 2013).
“Also recorded” adds a separate entry of the source. Like-named read-outs stand apart in the source and are kept apart here.

Key:
HUVEC = test: cells; conditions: for additive effect with Cilengitide: chemotherapeutic combined with Cilengitide; for additive effect with DI-17E6: chemotherapeutic combined with DI-17E6; for additive effect with Mab 17E6: chemotherapeutic combined with Mab 17E6
Method: The experimental design gives answer to the question whether blockade of the one lowered the IC50 of the other for blockade endothelial cell growth in the presence of tumor growth factors VEGFA and FGF2.
Plates were coated with 100 μl VN at 1 μg/ml in PBS per 96-well at 4° C. overnight. […] When added in combination the two test substances were mixed at the starting concentrations and the mixture was serially diluted as for the single agents alone. In some assays the chemotherapeutics were serially diluted in the presence of a constant amount of the alpha V blockers at the IC50 or IC70 concentrations. Plates were incubated for 72 hours, then relative cell number was determined by the addition of 20 ul/well Alamar Blue (Resazurin).
Points were run in duplicate or in triplicate. Reagent blanks, containing media plus Alamar Blue without cells, were run on each plate.
Tests were routinely run using HUVEC in media containing 10 ng/ml FGF-2 or HDMVEC in media containing 10 ng/ml VEGF.

NP18-b3 pancreatic tumor = test: Orthotopic pancreatic xenograft; format: in vivo, nude mice; conditions: EMD 525797 500 μg per animal or gemcitabine 50 mg/Kg, i.p. 3 times a week; 6 weeks
Method: NP18-b3 pancreatic human cell line, which expresses αvβ3-integrin, was implanted orthotopically into the pancreas of immunosuppressed mice. The animals were randomized to and one week later treatment with drugs and vehicle started.
Tumors were removed and cut into pieces of 10 mg each. These pieces were then sutured to the pancreas of healthy animals (one piece per animal). 4-6 weeks later, tumors were removed, cut into pieces again and stitched into new animals. Those new animals were then randomized and one week later treatment with drugs and vehicle was started. EMD 525797 was dosed i.p. at 500 μg per animal three times a week. Gemcitabine was administered as a suboptimal dose of 50 mg/Kg 3 times a week (suboptimal dose based on previous studies). In a fourth group, EMD 525797 was combined with suboptimal doses of gemcitabine based on previous experiments. Tumor growth measurement (weight of the removed tumors) was made 6 weeks after the tumor grafting.

[1] = 4-weeks / repeat-dose toxicology study; format: in vivo, cynomolgus monkey
CAKI-1 renal carcinoma = CAKI-1 renal carcinoma xenograft, monotherapy; format: in vivo, SCID or nude mice; conditions: i.p. once per week
αv-integrins = test: Species specificity (immuno precipitation, western blotting); format: binding, human and monkey
Method: The molecular basis for this unusual profile has been unequivocally established by epitope mapping, sequence comparison, and x-ray co-crystallography. The epitope recognized by DI-17E6 is confirmed as unique to human and monkey by immuno precipitation and western blotting analysis performed with several species.

[2] = T-cell epitope mapping score; design: species or system human; conditions: T-cell epitope scoring
bacteria = test: Bacterial screening test for mutagenic potential; format: cell-based
[3] = Single dose immunogenicity study in monkeys (sandwich ELISA); format: in vivo, monkey; conditions: 1 mg/Kg single i.v., 1, 3 and 6 weeks
Method: In another study the pharmacy kinetic parameters of a single dose of DI-17E6 in monkeys was assessed and in addition, this study was planned to investigate the immunogenicity of DI-17E6. […] Length of the assay was 6 weeks. Serums were drawn pre-dose, and 1, 3, and 6 weeks after administration. Levels of monkey antibodies against DI-17E6 were analyzed. In this study, immunogenicity was directly addressed using a specific sandwich ELISA method designated for this type of studies (method not validated yet).

[4] = system: bFGF induced angiogenesis; test: Matrigel plug model in monkeys; format: in vivo, Cynomologus monkeys; conditions: 6 days
Method: Matrigel plugs containing bFGF were implanted s.c. into the abdomen of healthy Cynomologus monkeys. The animals were injected once with EMD 525797 i.v. at either 10 mg/Kg or 30 mg/Kg. Evaluation of angiogenesis was carried out 6 days after by quantification of the hemoglobin content in the Matrigel plugs.

αvβ3 integrin = αvβ3 integrin (Homo sapiens, UniProt P06756); test: Integrin binding ELISA
Chain of αvβ3 integrin (P06756 31-889 limits assumed): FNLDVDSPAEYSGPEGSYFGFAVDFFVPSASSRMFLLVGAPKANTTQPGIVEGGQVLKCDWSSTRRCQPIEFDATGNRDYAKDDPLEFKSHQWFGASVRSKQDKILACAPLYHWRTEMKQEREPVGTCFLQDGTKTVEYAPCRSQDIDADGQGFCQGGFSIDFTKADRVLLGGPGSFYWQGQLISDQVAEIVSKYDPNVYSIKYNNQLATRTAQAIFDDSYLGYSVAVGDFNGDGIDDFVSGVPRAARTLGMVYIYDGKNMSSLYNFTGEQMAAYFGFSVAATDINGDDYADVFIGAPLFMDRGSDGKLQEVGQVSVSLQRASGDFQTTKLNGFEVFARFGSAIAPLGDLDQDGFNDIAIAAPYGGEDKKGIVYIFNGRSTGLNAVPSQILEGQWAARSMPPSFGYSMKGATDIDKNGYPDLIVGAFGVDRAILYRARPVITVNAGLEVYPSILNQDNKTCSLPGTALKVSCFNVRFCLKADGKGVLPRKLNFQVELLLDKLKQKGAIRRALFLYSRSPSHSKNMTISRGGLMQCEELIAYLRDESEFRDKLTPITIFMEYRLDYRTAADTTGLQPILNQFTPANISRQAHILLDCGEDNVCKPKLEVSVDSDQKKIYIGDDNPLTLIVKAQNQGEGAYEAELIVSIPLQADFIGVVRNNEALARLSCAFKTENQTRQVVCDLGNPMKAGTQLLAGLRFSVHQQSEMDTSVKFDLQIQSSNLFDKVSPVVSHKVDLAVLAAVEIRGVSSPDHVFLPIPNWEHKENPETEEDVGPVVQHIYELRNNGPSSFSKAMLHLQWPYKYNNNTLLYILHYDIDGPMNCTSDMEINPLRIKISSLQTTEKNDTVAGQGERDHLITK
Chain of αvβ3 integrin (P06756 891-1048 partner limits assumed): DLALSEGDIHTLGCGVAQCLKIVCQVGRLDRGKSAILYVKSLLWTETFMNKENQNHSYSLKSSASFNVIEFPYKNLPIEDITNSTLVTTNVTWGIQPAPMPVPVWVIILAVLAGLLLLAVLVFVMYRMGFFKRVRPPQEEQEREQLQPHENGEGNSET
Chain of αvβ3 integrin (P05106 27-788 partner): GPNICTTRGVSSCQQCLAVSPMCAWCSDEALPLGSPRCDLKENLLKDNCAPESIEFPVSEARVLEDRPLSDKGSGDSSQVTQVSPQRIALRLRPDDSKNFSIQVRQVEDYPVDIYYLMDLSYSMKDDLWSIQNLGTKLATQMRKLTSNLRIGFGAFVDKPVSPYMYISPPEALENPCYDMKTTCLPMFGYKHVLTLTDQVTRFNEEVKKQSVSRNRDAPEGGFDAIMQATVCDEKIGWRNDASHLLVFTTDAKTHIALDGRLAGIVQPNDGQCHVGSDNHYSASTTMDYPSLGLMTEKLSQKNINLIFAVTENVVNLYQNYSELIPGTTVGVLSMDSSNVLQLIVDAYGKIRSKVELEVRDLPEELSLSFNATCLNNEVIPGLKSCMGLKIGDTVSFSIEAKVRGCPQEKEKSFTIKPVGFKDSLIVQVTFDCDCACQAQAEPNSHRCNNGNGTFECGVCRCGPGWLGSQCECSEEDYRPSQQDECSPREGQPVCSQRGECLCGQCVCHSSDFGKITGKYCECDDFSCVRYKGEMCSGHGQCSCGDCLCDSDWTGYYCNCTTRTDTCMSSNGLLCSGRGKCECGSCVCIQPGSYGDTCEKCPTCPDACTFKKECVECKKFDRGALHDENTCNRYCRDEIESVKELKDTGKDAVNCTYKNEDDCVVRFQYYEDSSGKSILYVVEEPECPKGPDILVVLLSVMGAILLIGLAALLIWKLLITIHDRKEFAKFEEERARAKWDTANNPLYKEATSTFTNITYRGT
Method: Assay to determine binding of DI17E6 antibody to alpha V integrin receptor subunit The ability of the DI17E6 antibody to bind alpha V integrin was assayed using an ELISA. Briefly, various amounts of antibody were added to wells containing alpha V integrin, wells were then washed, and the bound antibody was assayed according to standard procedures.

[5] = system: human endothelial cell adhesion to vitronectin; test: Endothelial cell adhesion to vitronectin; format: cell-based; conditions: read-out: EC50, inhibition of human endothelial cell adhesion to vitronectin
ADCC and CDC = format: cell-based
[6] = system: human melanoma cell lines m21, SKMEL-23, SKMEI, MeWo, WM-793; conditions: cisplatin, paclitaxel, vinblastin, vincristin, temoyolomide
[7] = First clinical study in healthy volunteers, anti-drug antibodies; format: in vivo, human
Excerpt: This was meanwhile confirmed by a first clinical study carried out in the US in 2006/2007. […] In contrast to that, mouse 17E6 develops in animal models a strong immune response.

[8] = system: platelet thrombus formation; test: Thrombus formation in perfusion chamber; format: cell-based; conditions: dose-dependent
Method: To exclude possible side effects of the antibody on platelets, EMD 525797 was evaluated for inhibition of platelet aggregation in vitro with human platelet rich plasma/collagen. […] Aggregation and activation studies were carried out using Platelet Rich Plasma (PRP). Thrombus formation by perfusion chamber with exposed subendothelial matrix.

[9] = Serum levels and anti-antibody response in monkey Matrigel plug experiment; format: in vivo; conditions: monkeys, single i.v. injection, up to end of study
Method: Serums were collected at three different points (from the legs): immediately before antibody injection, immediately (1-2 minutes) after antibody injection, and at the end of the study before animal sacrifice. […] To detect given serum dilution) were found at the two different time points in serum: immediately after antibody administration and at the end of the study.

CAKI-1 xenograft tumors = test: CAKI-1 renal cell carcinoma xenograft, with Erbitux; format: in vivo, mice; conditions: 17.1 mg/kg loading then […] weekly i.p.
Method: The renal cell carcinoma cell line CAKI-1 was grown in RPMI containing 10% FCS (heat-inactivated) plus 2 mM glutamine. 1 mM sodium pyruvate. 100 units/ml penicillin and 100 ug/ml streptomycin. Cells were passaged at confluence by washing once in cation-free PBS followed by a 3 minute incubation in trypsin (0.5 ug/ml)/EDTA (0.2 ug/ml) solution in PBS at 37° C. Cells were recovered in medium, centrifuged and taken up in medium and counted.
The treatment started for all groups at day 0 of experiment (same day of cell injection).

M21-L tumors = test: SCID mouse-human skin chimera model; format: in vivo; conditions: 1 mg/dose i.p. 3 times per week, from one day after inoculation
Excerpt: Human skin containing human M21 melanoma cells were grafted by implantation/transplantation onto SCID or nude mice. Experimental tumors grew in this tissue after intradermal inoculation of tumor cells and the initial angiogenic vasculature was derived from vessels in the human skin. In the next experiment, the use of M21-L cells that have no av-integrins means that only those integrins expressed on the endothelial cells within the grafted human skin were targeted.

[10] = system: VEGF-induced migration of human endothelial cells on vitronectin; conditions: read-out: EC50, block of VEGF-induced migration of human endothelial cells on vitronectin
[11] = Homo sapiens, HUVEC, 72 h, 10 ng/ml FGF-2, 72 hours, single agent
[12] = HUVEC, 10 ng/ml FGF-2, 72 hours, single agent

Molecule: Nc1ccn([C@@H]2O[C@H](CO)[C@@H](O)C2(F)F)c(=O)n1 [Gemcitabine]
- IC50 (HUVEC; [11]): 4 nM
- additive effect with Cilengitide (HUVEC): yes
- additive effect with DI-17E6 (HUVEC): yes
- additive effect with Mab 17E6 (HUVEC): yes
- tumor size and weight, monotherapy (NP18-b3 pancreatic tumor): not active

Molecule: N[C@@H](Cc1ccc(N(CCCl)CCCl)cc1)C(=O)O [Melphalan]
- IC50 (HUVEC; Homo sapiens, HUVEC, 72 h): 11400 nM
- additive effect with Cilengitide (HUVEC): yes
- additive effect with DI-17E6 (HUVEC): yes
- additive effect with Mab 17E6 (HUVEC): yes

Molecule: CC(=O)O[C@H]1C(=O)[C@@]2(C)[C@H]([C@H](OC(=O)c3ccccc3)[C@]3(O)C[C@H](OC(=O)[C@H](O)[C@@H](NC(=O)c4ccccc4)c4ccccc4)C(C)=C1C3(C)C)[C@]1(OC(C)=O)CO[C@@H]1C[C@@H]2O [Taxol, Paclitaxel]
- IC50 (HUVEC; [12]): 0.3 ng/mL
- IC50 (HUVEC; [11]): 0.27 ng/mL
- IC50 (HUVEC; Homo sapiens, HUVEC, read-out: IC50 in combination with 17E6, HUVEC, combination with 17E6): 0.18 ng/mL
- IC50 (HUVEC; Homo sapiens, HUVEC, read-out: IC50 in combination with Cilengitide, HUVEC, combination with Cilengitide): 0.13 ng/mL
- IC50 (HUVEC; Homo sapiens, HUVEC, read-out: IC50 in combination with DI-17E6, HUVEC, combination with DI-17E6): 0.1 ng/mL
- additive effect with Cilengitide (HUVEC): yes
- additive effect with DI-17E6 (HUVEC): yes
- additive effect with Mab 17E6 (HUVEC): yes

Molecule: Cn1nnc2c(C(N)=O)ncn2c1=O [Temozolmide]
- IC50 (in words) (HUVEC; [12]): inactive
- additive effect with Cilengitide (HUVEC): no
- additive effect with DI-17E6 (HUVEC): no
- additive effect with Mab 17E6 (HUVEC): no

Molecule: CC[C@]1(O)C[C@H]2CN(CCc3c([nH]c4ccccc34)[C@@](C(=O)OC)(c3cc4c(cc3OC)N(C=O)[C@H]3[C@@](O)(C(=O)OC)[C@H](OC(C)=O)[C@]5(CC)C=CCN6CC[C@]43[C@@H]65)C2)C1 [Vincrisitin]
- IC50 (HUVEC; [11]): 0.7 nM
- additive effect with Cilengitide (HUVEC): yes
- additive effect with DI-17E6 (HUVEC): yes
- additive effect with Mab 17E6 (HUVEC): yes

Molecule: DI-17E6: engineered de-immunized anti-αv integrin antibody: 17E6 CDRs, h425 light chain frameworks, human IgG2 with modified IgG1 hinge, N297Q, F296A
- tolerability ([1]; 10, 33 and 100 mg/kg once weekly for 4 weeks, intravenous infusion (1 h)): well tolerated
- treatment-related effects in 4-weeks toxicology study ([1]; clinical observations, body weight, ECG, clinical pathology, organ weight, histopathology): did not reveal any treatment-related effects
- safety pharmacology alerts ([1]; repeat-dose-toxicity studies in cynomolgus monkey): No safety pharmacology alerts
- tumor volume (CAKI-1 renal carcinoma; high dose (500 ug/ml)): complete reduction of tumor volume
- tumor volume/size (CAKI-1 renal carcinoma; low (1 ug/ml) to medium (100 ug/ml serum) doses): can reduce tumor volume/size
- species specificity (αv-integrins): human and monkey αv-integrins only
- Total score, heavy chain ([2]; heavy chain): 85
- Total score, light chain ([2]; light chain): 92
- mutagenic potential (bacteria): not mutagenic
- monkey antibodies against the antibody [3]: no monkey antibodies against DI-17E6 could be detected
- new blood vessel formation (hemoglobin content of plugs) ([4]; 10 mg/Kg i.v. once): inactive
- new blood vessel formation (hemoglobin content of plugs) ([4]; 30 mg/Kg i.v. once): highly efficacious
- binding to αvβ3 integrin (in words) (αvβ3 integrin): similar
- binding to αvβ3 integrin (in words) (αvβ3 integrin; listed as DI-17E6-g2h(NtoQ)(C60Y)): retains binding affinity
- IC50 (HUVEC; [12]): 4 ng/mL
- EC50 [5]: ~10 nM
- ADCC and CDC (ADCC and CDC): neither antibody dependent cell cytotoxicity (ADCC) nor complement dependent cytotoxicity (CDC)
- effect on the chemotherapeutic agent [6]: not more than additive affects
- anti-drug antibodies in volunteers ([7]; group of 250 mg, 6 volunteers): one volunteer developed anti-drug antibodies
- anti-drug antibodies in volunteers ([7]; higher dose groups (500 mg and more)): no volunteer developed any immune response; also recorded: not detected
- platelet thrombus formation in the perfusion chamber [8]: blocks
- serum levels of antibody [9]: high serum levels at each time-point
- T/C at day 40, end of treatment (CAKI-1 xenograft tumors): 25%
- serum trough values (CAKI-1 xenograft tumors; mice): 100 µg/mL
- growth of M21-L tumors (M21-L tumors): inhibited growth
- EC50 [10]: ~50 nM
